From patent publication US20240067632A1, “WEE1 Degrading Compounds and Uses Thereof” (Bristol-Myers Squibb Company, priority 2022, published 2024)
Read-outs that look alike come from different tables or passages of the source.

Legend:
WEE1 = molecular target: T1, WEE1 (Homo sapiens, UniProt P30291+Q96SW2); assay: WEE1-ePL degradation assay (LentiX-WEE1-ePL-GSPT1-ND cells, InCELL Hunter luminescence, 4 h); format: cell-based; details: 293T-LentiX WEE1-ePL cells; for DC50: read-out: 293T-LentiX WEE1-ePL Degradation 4 hr (EC50)
T1 construct: C-terminal ePL-tagged (DiscoverX, Fremont, CA) full-length WEE1 expression construct; expressed in transfected cells; host or cells: LentiX-HEK293T (Invitrogen), lentiviral transduction; co-expressing GSPT1-GN (G576N, lacking the first 158 amino acids)
How it was run: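 Degradation EC50 was fitted by a four-parameter logistic model, with the upper limit taken from DMSO wells. Luminescence was read with InCELL Hunter reagent after 30 min at room temperature, following a 4 h, 37° C exposure of 2500 cells/well. Cells were LentiX-HEK293T carrying ePL-tagged full-length WEE1, dosed in 10 points (3-fold) from 1 or 10 uM.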

MKN45 cells = assay: MKN45 cell proliferation assay (Cell-Titer-Glo, 120 h); format: cell-based; details: for EC50: Homo sapiens, MKN-45, 120 h, Cell-Titer-Glo, read-out: MKN45 Cell Prolif. 120 hr (EC50); for MKN45 Cell Prolif. 120 hr (Ymin-Obs): minimal percent of DMSO control observed in the concentrations tested
How it was run: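 Cells seeded at 400/well onto pre-printed 10-point half-log dilutions (top 1 or 10 uM, 0.1% DMSO final), in triplicate, and grown 120 h at 37 C. Viability by Cell-Titer-Glo luminescence, blank-subtracted and normalised to DMSO; EC50 from four-parameter logistic fit, with observed minimal % of control recorded as Ymin-obs.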

[1] = lower limit of the fit (0 = luciferase inhibitor, Ymax = DMSO control)
[2] = lower limit of the fit (Ymin=0 luciferase inhibitor, Ymax DMSO control)

| SMILES | 293T-LentiX WEE1-ePL Degradation 4 hr (Ymin) (WEE1; [1]) | DC50 (WEE1) [nM] | EC50 (MKN45 cells; growth inhibition) [nM] | MKN45 Cell Prolif. 120 hr (Ymin-Obs) (MKN45 cells) | 293T-LentiX WEE1-ePL Degradation 4 hr (Ymin) (WEE1; [2]) | EC50 (MKN45 cells) [nM] |
| --- | --- | --- | --- | --- | --- | --- |
| O=C1CCC(N2Cc3cc(O[C@H]4CCN(Cc5ccc6nc([C@@H]7CC[C@@H](O)C7)ccc6c5)C4)ccc3C2=O)C(=O)N1 (stereo partly drawn) [3-(5-{[(3S)-1-({2-[(1R,3R)-3-hydroxycyclopentyl]quinolin-6-yl}methyl)pyrrolidin-3-yl]oxy}-1-oxo-2,3-dihydro-1H-isoindol-2-yl)piperidine-2,6-dione] | 31.5 | 2.6 | 1.38 | 8.2675 | – | – |
| CO[C@@H]1CCC[C@@H](c2ccc3cc(CN4CC[C@H](Oc5ccc6c(c5)CN(C5CCC(=O)NC5=O)C6=O)C4)ccc3n2)C1 (stereo partly drawn) [3-(5-{[(3S)-1-({2-[(1R,3R)-3-methoxycyclohexyl]quinolin-6-yl}methyl)pyrrolidin-3-yl]oxy}-1-oxo-2,3-dihydro-1H-isoindol-2-yl)piperidine-2,6-dione] | 29 | 2.83 | 0.93 | 7.97 | – | – |
| CO[C@@H]1CC[C@@H](c2ccc3cc(CN4CC[C@H](Oc5ccc6c(c5)CN(C5CCC(=O)NC5=O)C6=O)C4)ccc3n2)C1 (stereo partly drawn) [3-(5-{[(3S)-1-({2-[(1R,3R)-3-methoxycyclopentyl]quinolin-6-yl}methyl)pyrrolidin-3-yl]oxy}-1-oxo-2,3-dihydro-1H-isoindol-2-yl)piperidine-2,6-dione] | 30 | 4.74 | 1.95 | 7.45 | – | – |
| COC[C@H]1CC[C@@H](c2ccc3cc(CN4CC[C@H](Oc5ccc6c(c5)CN(C5CCC(=O)NC5=O)C6=O)C4)ccc3n2)C1 (stereo partly drawn) [3-(5-{[(3S)-1-({2-[(1R,3S)-3-(methoxymethyl)cyclopentyl]quinolin-6-yl}methyl)pyrrolidin-3-yl]oxy}-1-oxo-2,3-dihydro-1H-isoindol-2-yl)piperidine-2,6-dione] | – | 3.12 | – | 8.888 | 34.11 | 3.09 |
| O=C1CCC(N2Cc3cc(O[C@H]4CCN(Cc5ccc6nc([C@@H]7CC[C@H](O)C7)ccc6c5)C4)ccc3C2=O)C(=O)N1 (stereo partly drawn) [3-(5-{[(3S)-1-({2-[(1R,3S)-3-hydroxycyclopentyl]quinolin-6-yl}methyl)pyrrolidin-3-yl]oxy}-1-oxo-2,3-dihydro-1H-isoindol-2-yl)piperidine-2,6-dione] | 32 | 3.33 | 0.655 | 7.585 | – | – |
| CO[C@H]1CCC[C@@H](c2ccc3cc(CN4CC[C@H](Oc5ccc6c(c5)CN(C5CCC(=O)NC5=O)C6=O)C4)ccc3n2)C1 (stereo partly drawn) [3-(5-{[(3S)-1-({2-[(1R,3S)-3-methoxycyclohexyl]quinolin-6-yl}methyl)pyrrolidin-3-yl]oxy}-1-oxo-2,3-dihydro-1H-isoindol-2-yl)piperidine-2,6-dione] | 27.5 | 3.49 | 1.96 | 7.623 | – | – |
| CO[C@H]1CC[C@@H](c2ccc3cc(CN4CC[C@H](Oc5ccc6c(c5)CN(C5CCC(=O)NC5=O)C6=O)C4)ccc3n2)C1 (stereo partly drawn) [3-(5-{[(3S)-1-({2-[(1R,3S)-3-methoxycyclopentyl]quinolin-6-yl}methyl)pyrrolidin-3-yl]oxy}-1-oxo-2,3-dihydro-1H-isoindol-2-yl)piperidine-2,6-dione] | 28.33 | 3.2 | 0.741 | 7.233 | – | – |
| O=C1CCC(N2Cc3cc(O[C@H]4CCN(Cc5ccc6nc(N7C[C@H]8C[C@@H]7CO8)ncc6c5)C4)ccc3C2=O)C(=O)N1 (stereo partly drawn) [3-(5-{[(3S)-1-({2-[(1R,4R)-2-oxa-5-azabicyclo[2.2.1]heptan-5-yl]quinazolin-6-yl}methyl)pyrrolidin-3-yl]oxy}-1-oxo-2,3-dihydro-1H-isoindol-2-yl)piperidine-2,6-dione] | 39 | 80.1 | 76.6 | 16.57 | – | – |
| O=C1CCC(N2Cc3cc(O[C@H]4CCN(Cc5ccc6nc(N7C[C@H]8C[C@@H]7CO8)ccc6c5)C4)ccc3C2=O)C(=O)N1 (stereo partly drawn) [3-(5-{[(3S)-1-({2-[(1R,4R)-2-oxa-5-azabicyclo[2.2.1]heptan-5-yl]quinolin-6-yl}methyl)pyrrolidin-3-yl]oxy}-1-oxo-2,3-dihydro-1H-isoindol-2-yl)piperidine-2,6-dione] | 33 | 5.67 | 6.19 | 9.745 | – | – |
| O=C1CCC(N2Cc3cc(O[C@H]4CCN(Cc5ccc6nc(N7[C@@H]8COC[C@H]7C8)ncc6c5)C4)ccc3C2=O)C(=O)N1 (stereo partly drawn) [3-(5-{[(3S)-1-({2-[(1R,5S)-3-oxa-6-azabicyclo[3.1.1]heptan-6-yl]quinazolin-6-yl}methyl)pyrrolidin-3-yl]oxy}-1-oxo-2,3-dihydro-1H-isoindol-2-yl)piperidine-2,6-dione] | 38 | 117 | 17 | 10.76 | – | – |
| O=C1CCC(N2Cc3cc(O[C@H]4CCN(Cc5ccc6nc(N7[C@@H]8COC[C@H]7C8)ccc6c5)C4)ccc3C2=O)C(=O)N1 (stereo partly drawn) [3-(5-{[(3S)-1-({2-[(1R,5S)-3-oxa-6-azabicyclo[3.1.1]heptan-6-yl]quinolin-6-yl}methyl)pyrrolidin-3-yl]oxy}-1-oxo-2,3-dihydro-1H-isoindol-2-yl)piperidine-2,6-dione] | 37 | 8.62 | 11.2 | 9.645 | – | – |
| O=C1CCC(N2Cc3cc(O[C@H]4CCN(Cc5ccc6nc(N7[C@@H]8CC[C@H]7COC8)ncc6c5)C4)ccc3C2=O)C(=O)N1 (stereo partly drawn) [3-(5-{[(3S)-1-({2-[(1R,5S)-3-oxa-8-azabicyclo[3.2.1]octan-8-yl]quinazolin-6-yl}methyl)pyrrolidin-3-yl]oxy}-1-oxo-2,3-dihydro-1H-isoindol-2-yl)piperidine-2,6-dione] | 33 | 101 | 24.9 | 8.88 | – | – |
| O=C1CCC(N2Cc3cc(O[C@H]4CCN(Cc5ccc6nc(N7[C@@H]8CC[C@H]7COC8)ccc6c5)C4)ccc3C2=O)C(=O)N1 (stereo partly drawn) [3-(5-{[(3S)-1-({2-[(1R,5S)-3-oxa-8-azabicyclo[3.2.1]octan-8-yl]quinolin-6-yl}methyl)pyrrolidin-3-yl]oxy}-1-oxo-2,3-dihydro-1H-isoindol-2-yl)piperidine-2,6-dione] | 28 | 4.47 | 9.72 | 11.965 | – | – |
| O=C1CCC(N2Cc3cc(O[C@H]4CCN(Cc5ccc6nc(N7C[C@H]8C[C@@H](C7)O8)ncc6c5)C4)ccc3C2=O)C(=O)N1 (stereo partly drawn) [3-(5-{[(3S)-1-({2-[(1R,5S)-6-oxa-3-azabicyclo[3.1.1]heptan-3-yl]quinazolin-6-yl}methyl)pyrrolidin-3-yl]oxy}-1-oxo-2,3-dihydro-1H-isoindol-2-yl)piperidine-2,6-dione] | 39 | 20.2 | 16.4 | 13.42 | – | – |
| O=C1CCC(N2Cc3cc(O[C@H]4CCN(Cc5ccc6nc(N7C[C@H]8C[C@@H](C7)O8)ccc6c5)C4)ccc3C2=O)C(=O)N1 (stereo partly drawn) [3-(5-{[(3S)-1-({2-[(1R,5S)-6-oxa-3-azabicyclo[3.1.1]heptan-3-yl]quinolin-6-yl}methyl)pyrrolidin-3-yl]oxy}-1-oxo-2,3-dihydro-1H-isoindol-2-yl)piperidine-2,6-dione] | 38 | 1.98 | 3.19 | 9.79 | – | – |
| O=C1CCC(N2Cc3cc(O[C@H]4CCN(Cc5ccc6nc(N7C[C@H]8CC[C@@H](C7)O8)ncc6c5)C4)ccc3C2=O)C(=O)N1 (stereo partly drawn) [3-(5-{[(3S)-1-({2-[(1R,5S)-8-oxa-3-azabicyclo[3.2.1]octan-3-yl]quinazolin-6-yl}methyl)pyrrolidin-3-yl]oxy}-1-oxo-2,3-dihydro-1H-isoindol-2-yl)piperidine-2,6-dione] | 35 | 45.9 | 15.6 | 11.04 | – | – |
| O=C1CCC(N2Cc3cc(O[C@H]4CCN(Cc5ccc6nc(N7C[C@H]8CC[C@@H](C7)O8)ccc6c5)C4)ccc3C2=O)C(=O)N1 (stereo partly drawn) [3-(5-{[(3S)-1-({2-[(1R,5S)-8-oxa-3-azabicyclo[3.2.1]octan-3-yl]quinolin-6-yl}methyl)pyrrolidin-3-yl]oxy}-1-oxo-2,3-dihydro-1H-isoindol-2-yl)piperidine-2,6-dione] | 37 | 6.5 | 6.42 | 11.085 | – | – |
| COC[C@@H]1CCC[C@@H]1c1ccc2cc(CN3CC[C@H](Oc4ccc5c(c4)CN(C4CCC(=O)NC4=O)C5=O)C3)ccc2n1 (stereo partly drawn) [3-(5-{[(3S)-1-({2-[(1S,2R)-2-(methoxymethyl)cyclopentyl]quinolin-6-yl}methyl)pyrrolidin-3-yl]oxy}-1-oxo-2,3-dihydro-1H-isoindol-2-yl)piperidine-2,6-dione] | – | 0.334 | – | 11.34 | 26.36 | 5.76 |
